The molecules below were run on TFEB (assay: TFEB nuclear translocation assay, HeLa wt cells). Conditions: Homo sapiens, HeLa, 2 h, 2 hrs compound treatment, Table 1 does not say HeLa wt or TRPML1 KO.
Assay type: cell-based
In short: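 Read-out is the ratio of TFEB immunofluorescence in the nucleus to that in a ring just outside it, measured by automated imaging. HeLa wt cells received compounds for 2 hrs at 37° C before fixation and staining; AC50 values come from this ratio.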

Structure (SMILES)	AC50 [µM]
CN(C)S(=O)(=O)c1ccc(S(=O)(=O)Nc2ccccc2N2CCN(CC(F)(F)F)CC2)cc1 [Compound A-560, N1,N1-dimethyl-N4-{2-[4-(2,2,2-trifluoroethyl)piperazin-1-yl]phenyl}benzene-1,4-disulfonamide]	≤ 2
Cc1ccc(S(=O)(=O)n2cc3c(N4CCN(C5CCCCC5)CC4)cccc3n2)cc1 [Compound A-561]	2.01 to 8
CN(C)S(=O)(=O)c1ccc(S(=O)(=O)Nc2ccccc2N2CCC3(CCCCO3)CC2)cc1 [Compound A-562, N1,N1-dimethyl-N4-(2-{1-oxa-9-azaspiro[5.5]undecan-9-yl}phenyl)benzene-1,4-disulfonamide]	≤ 2
COc1ccc(Cl)cc1CS(=O)(=O)Nc1ccccc1N1CCN(C(=O)C(C)(C)C)CC1 [Compound A-563, 1-(5-chloro-2-methoxyphenyl)-N-{2-[4-(2,2-dimethylpropanoyl)piperazin-1-yl]phenyl}methanesulfonamide]	≥ 10
CC(C)(C)C(=O)N1CCN(c2ccccc2NS(=O)(=O)C2(c3ccccc3)CC2)CC1 [Compound A-564, N-{2-[4-(2,2-dimethylpropanoyl)piperazin-1-yl]phenyl}-1-phenylcyclopropane-1-sulfonamide]	≤ 2
CC(C)(C)C(=O)N1CCN(c2ccccc2NS(=O)(=O)Cc2cccc3cccnc23)CC1 [Compound A-565, N-{2-[4-(2,2-dimethylpropanoyl)piperazin-1-yl]phenyl}-1-(quinolin-8-yl)methanesulfonamide]	8.01 to 9.99
CC(C)(C)C(=O)N1CCN(c2ccccc2NS(=O)(=O)Cc2ccc3ccccc3c2)CC1 [Compound A-566, N-{2-[4-(2,2-dimethylpropanoyl)piperazin-1-yl]phenyl}-1-(naphthalen-2-yl)methanesulfonamide]	2.01 to 8
CC(C)(C)C(=O)N1CCN(c2ccccc2NS(=O)(=O)c2ccc(CC(F)(F)F)cc2)CC1 [Compound A-567, N-{2-[4-(2,2-dimethylpropanoyl)piperazin-1-yl]phenyl}-4-(2,2,2-trifluoroethyl)benzene-1-sulfonamide]	≥ 10
CC(C)(C)C(=O)N1CCN(c2ccccc2NS(=O)(=O)c2ccc(OC(F)(F)F)cc2)CC1 [Compound A-568, N-{2-[4-(2,2-dimethylpropanoyl)piperazin-1-yl]phenyl}-4-(trifluoromethoxy)benzene-1-sulfonamide]	8.01 to 9.99
COC(F)(F)C(F)(F)c1ccc(S(=O)(=O)Nc2ccccc2N2CCN(C(=O)C(C)(C)C)CC2)cc1 [Compound A-569, N-{2-[4-(2,2-dimethylpropanoyl)piperazin-1-yl]phenyl}-4-(1,1,2,2-tetrafluoro-2-methoxyethyl)benzene-1-sulfonamide]	8.01 to 9.99
CC1(C)CC2(CCN(c3ccccc3NS(=O)(=O)Cc3ccccc3)CC2)CO1 [Compound A-570, N-(2-{3,3-dimethyl-2-oxa-8-azaspiro[4.5]decan-8-yl}phenyl)-1-phenylmethanesulfonamide]	≤ 2
COCC1(C)CCN(c2ccccc2NS(=O)(=O)Cc2ccc3c(c2)COCC3)CC1 [Compound A-571, 1-(3,4-dihydro-1H-2-benzopyran-7-yl)-N-{2-[4-(methoxymethyl)-4-methylpiperidin-1-yl]phenyl}methanesulfonamide]	2.01 to 8
CC(C)(C)C(=O)N1CCN(c2ccccc2NS(=O)(=O)c2ccc(C(C)(C)C(F)(F)F)cc2)CC1 [Compound A-572, N-{2-[4-(2,2-dimethylpropanoyl)piperazin-1-yl]phenyl}-4-(1,1,1-trifluoro-2-methylpropan-2-yl)benzene-1-sulfonamide]	2.01 to 8
CCCOc1ccc(S(=O)(=O)Nc2ccccc2N2CCN(C(=O)C(C)(C)C)CC2)cc1 [Compound A-573, N-{2-[4-(2,2-dimethylpropanoyl)piperazin-1-yl]phenyl}-4-propoxybenzene-1-sulfonamide]	8.01 to 9.99
CC(C)(C)C(=O)N1CCN(c2ccccc2NS(=O)(=O)c2ccc(SC(F)(F)F)cc2)CC1 [Compound A-574, N-{2-[4-(2,2-dimethylpropanoyl)piperazin-1-yl]phenyl}-4-[(trifluoromethyl)sulfanyl]benzene-1-sulfonamide]	2.01 to 8
CC(C)(C)C(=O)N1CCN(c2ccccc2NS(=O)(=O)c2ccc(S(F)(F)(F)(F)F)cc2)CC1 [Compound A-575, N-{2-[4-(2,2-dimethylpropanoyl)piperazin-1-yl]phenyl}-4-(pentafluoro-λ^6-sulfanyl)benzene-1-sulfonamide]	8.01 to 9.99
CC(C)(C)C(=O)N1CCN(c2ccccc2NS(=O)(=O)c2ccc(OC3CC3)cc2)CC1 [Compound A-576, 4-cyclopropoxy-N-{2-[4-(2,2-dimethylpropanoyl)piperazin-1-yl]phenyl}benzene-1-sulfonamide]	≥ 10
COCC1(C)CCN(c2ccccc2NS(=O)(=O)c2ccc(Cl)cc2)CC1 [Compound A-577, 4-chloro-N-{2-[4-(methoxymethyl)-4-methylpiperidin-1-yl]phenyl}benzene-1-sulfonamide]	2.01 to 8

Structure (SMILES)	AC50 [µM]
COCC1(C)CCN(c2ccccc2NS(=O)(=O)Cc2ccc(C)cc2)CC1 [Compound A-578, N-{2-[4-(methoxymethyl)-4-methylpiperidin-1-yl]phenyl}-1-(4-methylphenyl)methanesulfonamide]	2.01 to 8
COCC1(C)CCN(c2ccccc2NS(=O)(=O)Cc2ccccc2F)CC1 [Compound A-579, 1-(2-fluorophenyl)-N-{2-[4-(methoxymethyl)-4-methylpiperidin-1-yl]phenyl}methanesulfonamide]	2.01 to 8
COCC1(C)CCN(c2ccccc2NS(=O)(=O)Cc2ccc(F)cc2)CC1 [Compound A-580, 1-(4-fluorophenyl)-N-{2-[4-(methoxymethyl)-4-methylpiperidin-1-yl]phenyl}methanesulfonamide]	8.01 to 9.99
COCC1(C)CCN(c2ccccc2NS(=O)(=O)Cc2cccc(C#N)c2)CC1 [Compound A-581, 1-(3-cyanophenyl)-N-{2-[4-(methoxymethyl)-4-methylpiperidin-1-yl]phenyl}methanesulfonamide]	2.01 to 8
COCC1(C)CCN(c2ccccc2NS(=O)(=O)Cc2ccc(OC)cc2)CC1 [Compound A-582, N-{2-[4-(methoxymethyl)-4-methylpiperidin-1-yl]phenyl}-1-(4-methoxyphenyl)methanesulfonamide]	2.01 to 8
CC(C)(C)C(=O)N1CCN(c2ccccc2NS(=O)(=O)C2CCc3ccccc3C2)CC1 (stereo not drawn) [Compound A-583, N-{2-[4-(2,2-dimethylpropanoyl)piperazin-1-yl]phenyl}-1,2,3,4-tetrahydronaphthalene-2-sulfonamide]	≥ 10
CN(C)S(=O)(=O)c1ccc(S(=O)(=O)Nc2ccccc2N2CCC3(CCCO3)CC2)cc1 [Compound A-584, N1,N1-dimethyl-N4-(2-{1-oxa-8-azaspiro[4.5]decan-8-yl}phenyl)benzene-1,4-disulfonamide]	≤ 2
CN(C)S(=O)(=O)c1ccc(S(=O)(=O)Nc2ccccc2N2CCC(C(F)F)CC2)cc1 [Compound A-585, N4-{2-[4-(difluoromethyl)piperidin-1-yl]phenyl}-N1,N1-dimethylbenzene-1,4-disulfonamide]	≤ 2
COCC1(C)CCN(c2ccccc2NS(=O)(=O)Cc2cccc(S(C)(=O)=O)c2)CC1 [Compound A-586, l-(3-methanesulfonylphenyl)-N-{2-[4-(methoxymethyl)-4-methylpiperidin-1-yl]phenyl}methanesulfonamide]	8.01 to 9.99
COCCOCCOCCN(C)S(=O)(=O)c1ccc(S(=O)(=O)Nc2ccccc2N2CCC(c3ccc(Cl)cc3F)CC2)cc1 [Compound A-587, N4-{2-[4-(4-chloro-2-fluorophenyl)piperidin-1-yl]phenyl}-N1-{2-[2-(2-methoxyethoxy)ethoxy]ethyl}-N1-methylbenzene-1,4-disulfonamide]	2.01 to 8
COCCOCCOCCOc1ccc(S(=O)(=O)Nc2ccccc2N2CCC(c3ccc(Cl)cc3F)CC2)cc1 [Compound A-588, N-{2-[4-(4-chloro-2-fluorophenyl)piperidin-1-yl]phenyl}-4-{2-[2-(2-methoxyethoxy)ethoxy]ethoxy}benzene-1-sulfonamide]	≤ 2
CC(C)(C)C(=O)N1CCN(c2ccccc2NS(=O)(=O)c2ccc(C(C)(F)F)cc2)CC1 [Compound A-590, 4-(1,1-difluoroethyl)-N-{2-[4-(2,2-dimethylpropanoyl)piperazin-1-yl]phenyl}benzene-1-sulfonamide]	2.01 to 8
CC(C)(C)C(=O)N1CCN(c2ccccc2NS(=O)(=O)c2ccc(OCC(F)(F)F)cc2)CC1 [Compound A-591, N-{2-[4-(2,2-dimethylpropanoyl)piperazin-1-yl]phenyl}-4-(2,2,2-trifluoroethoxy)benzene-1-sulfonamide]	≥ 10
COCC1(C)CCN(c2ccccc2NS(=O)(=O)Cc2ccccc2C)CC1 [Compound A-592, N-{2-[4-(methoxymethyl)-4-methylpiperidin-1-yl]phenyl}-1-(2-methylphenyl)methanesulfonamide]	8.01 to 9.99
COCC1(C)CCN(c2ccccc2NS(=O)(=O)Cc2cccc(C)c2)CC1 [Compound A-593, N-{2-[4-(methoxymethyl)-4-methylpiperidin-1-yl]phenyl}-1-(3-methylphenyl)methanesulfonamide]	2.01 to 8
COCC1(C)CCN(c2ccccc2NS(=O)(=O)Cc2cccc(F)c2)CC1 [Compound A-594, 1-(3-fluorophenyl)-N-{2-[4-(methoxymethyl)-4-methylpiperidin-1-yl]phenyl}methanesulfonamide]	2.01 to 8
COCC1(C)CCN(c2ccccc2NS(=O)(=O)Cc2ccccc2OC)CC1 [Compound A-595, N-{2-[4-(methoxymethyl)-4-methylpiperidin-1-yl]phenyl}-1-(2-methoxyphenyl)methanesulfonamide]	2.01 to 8
COCC1(C)CCN(c2ccccc2NS(=O)(=O)Cc2cccc(OC)c2)CC1 [Compound A-596, N-{2-[4-(methoxymethyl)-4-methylpiperidin-1-yl]phenyl}-1-(3-methoxyphenyl)methanesulfonamide]	2.01 to 8
